Legend:
[1] = tested on: denervated orbicularis oculi; test: Ach stimulation in the denervated rabbit model (Miochol-E injected into orbicularis oculi pocket); format: in vivo; design: key to eyelid response to Ach delivered: N = no response; C = complete eyelid closure
Source text: a) Two white New Zealand female rabbits were anesthetized by using 3-5% isofluorane inhalation and ketamine/xylazine and monitored by Heska monitor (SP02, heart rate, and rectal temperature). b) A pre-auricular incision was made the facial nerve was surgically sectioned and a five millimeter section was eliminated.
To determine the response of denervated orbicularis oculi in rabbits to stimulation with varying dosages of Miochol-E (acetylcholine chloride, injectable, Novartis pharmaceuticals) the FDA approved Miochol-E in 10 mg/ml, or 0.055M Ach (molar mass of 182 g/mol) was used to test the effects in the denervated rabbit model.
Methods: The rabbit was sedated in standard fashion, an eyelid incision was made 5 mm from the lash line and the Miochol E was injected into the orbicularis oculi pocket. Retesting was done at six weeks.

[2] = tested on: right denervated orbicularis oculi; test: Synergistic action of electric stimulation and Ach on denervated orbicularis oculi; format: in vivo, rabbit
Source text: A possible synergistic interaction between Ach and electric stimulation were observed as follows. After having injected an amount of Ach into the right denervated orbicularis oculi that produced no reaction, electric stimulation was delivered to the muscle at an intensity previously unable to produce a definitive blink.
In a subsequent test session, the right denervated orbicularis was first tested using electrical stimulation alone (prior to any Ach testing) as shown in Table III.
After the delivery of 200 ul of Ach to the right denervated orbicularis oculi, the right orbicularis oculi was allowed to relax to baseline position prior to Ach stimulation. No saline flush was performed. Electric stimulation was given at 10 msec phase duration at 3 volts.

[3] = Chemical stability of Ach at body temperature (37 C, HPLC with UV detection); format: physicochemical
Source text: To determine the stability of acetylcholine at 37 C to help guide the reservoir sizes and locations, aliquots of reference acetylcholine and standard strength Miochol-E (acetylcholine, injectable, Novartis Pharmaceuticals) were stored in sterile glass containers at 37 C.

[4] = Full Strength Ach (10 mg/ml), 200 μl, denervated rabbit orbicularis oculi

## CC(=O)OCC[N+](C)(C)C.[Cl-] [Ach, acetylcholine chloride]
[1]; Ach delivered to the orbicularis in a diffuse fashion, at certain concentrations and volumes
  muscle contraction / eyelid closure (conclusion from experiments): tonic, prolonged closure
[1]; Ach dilution 1:1, 0.5 μl, denervated rabbit orbicularis oculi
  eyelid response to Ach delivered: N
[1]; Ach dilution 1:1, 1 μl, denervated rabbit orbicularis oculi
  eyelid response to Ach delivered: N
[1]; Ach dilution 1:1, 5 μl, denervated rabbit orbicularis oculi
  eyelid response to Ach delivered: N
[1]; Ach dilution 1:1, 10 μl, denervated rabbit orbicularis oculi
  eyelid response to Ach delivered: N
[1]; Ach dilution 1:1, 25 μl, denervated rabbit orbicularis oculi
  eyelid response to Ach delivered: N
[1]; Ach dilution 1:1, 50 μl, denervated rabbit orbicularis oculi
  eyelid response to Ach delivered: N
[1]; Ach dilution 1:1, 100 μl, denervated rabbit orbicularis oculi
  eyelid response to Ach delivered: N
[1]; Ach dilution 1:2, 0.5 μl, denervated rabbit orbicularis oculi
  eyelid response to Ach delivered: N
[1]; Ach dilution 1:2, 1 μl, denervated rabbit orbicularis oculi
  eyelid response to Ach delivered: N
[1]; Ach dilution 1:2, 5 μl, denervated rabbit orbicularis oculi
  eyelid response to Ach delivered: N
[1]; Ach dilution 1:2, 10 μl, denervated rabbit orbicularis oculi
  eyelid response to Ach delivered: N
[1]; Ach dilution 1:2, 25 μl, denervated rabbit orbicularis oculi
  eyelid response to Ach delivered: N
[1]; Ach dilution 1:2, 50 μl, denervated rabbit orbicularis oculi
  eyelid response to Ach delivered: N
[1]; Ach dilution 1:2, 100 μl, denervated rabbit orbicularis oculi
  eyelid response to Ach delivered: N
[1]; Ach dilution 1:5, 0.5 μl, denervated rabbit orbicularis oculi
  eyelid response to Ach delivered: N
[1]; Ach dilution 1:5, 1 μl, denervated rabbit orbicularis oculi
  eyelid response to Ach delivered: N
[1]; Ach dilution 1:5, 5 μl, denervated rabbit orbicularis oculi
  eyelid response to Ach delivered: N
[1]; Ach dilution 1:5, 10 μl, denervated rabbit orbicularis oculi
  eyelid response to Ach delivered: N
[1]; Ach dilution 1:5, 25 μl, denervated rabbit orbicularis oculi
  eyelid response to Ach delivered: N
[1]; Ach dilution 1:5, 50 μl, denervated rabbit orbicularis oculi
  eyelid response to Ach delivered: N
[1]; Ach dilution 1:5, 100 μl, denervated rabbit orbicularis oculi
  eyelid response to Ach delivered: N
[1]; Ach dilution 1:10, 0.5 μl, denervated rabbit orbicularis oculi
  eyelid response to Ach delivered: N
[1]; Ach dilution 1:10, 1 μl, denervated rabbit orbicularis oculi
  eyelid response to Ach delivered: N
[1]; Ach dilution 1:10, 5 μl, denervated rabbit orbicularis oculi
  eyelid response to Ach delivered: N
[1]; Ach dilution 1:10, 10 μl, denervated rabbit orbicularis oculi
  eyelid response to Ach delivered: N
[1]; Ach dilution 1:10, 25 μl, denervated rabbit orbicularis oculi
  eyelid response to Ach delivered: N
[1]; Ach dilution 1:10, 50 μl, denervated rabbit orbicularis oculi
  eyelid response to Ach delivered: N
[1]; Ach dilution 1:10, 100 μl, denervated rabbit orbicularis oculi
  eyelid response to Ach delivered: N
[1]; Full Strength Ach (10 mg/ml), 0.5 μl, denervated rabbit orbicularis oculi
  eyelid response to Ach delivered: N
[1]; Full Strength Ach (10 mg/ml), 1 μl, denervated rabbit orbicularis oculi
  eyelid response to Ach delivered: N
[1]; Full Strength Ach (10 mg/ml), 5 μl, denervated rabbit orbicularis oculi
  eyelid response to Ach delivered: N
[1]; Full Strength Ach (10 mg/ml), 10 μl, denervated rabbit orbicularis oculi
  eyelid response to Ach delivered: N
[1]; Full Strength Ach (10 mg/ml), 25 μl, denervated rabbit orbicularis oculi
  eyelid response to Ach delivered: N
[1]; Full Strength Ach (10 mg/ml), 50 μl, denervated rabbit orbicularis oculi
  eyelid response to Ach delivered: N
[1]; Full Strength Ach (10 mg/ml), 100 μl, denervated rabbit orbicularis oculi
  eyelid response to Ach delivered: N
[1]; [4]
  duration of complete eyelid closure: 1 min
  eyelid response to Ach delivered: C
[2]; after 200 ul of Ach, muscle relaxed to baseline, no saline flush, electric stimulation 10 msec phase duration at 3 volts
  eyelid response to electric stimulation after Ach delivery: Reproducible complete closure blinks
[2]; an amount of Ach injected into the right denervated orbicularis oculi, before electric stimulation
  eyelid reaction to injected Ach alone: no reaction
[2]; electric stimulation at an intensity previously unable to produce a definitive blink, after Ach amount that produced no reaction, over three stimulated partial blink motions
  eyelid response to electric stimulation after Ach injection: closed tightly for four minutes
[3]; 14 days in sterile glass at 37 C
  stability at body temperature: stable
[3]; after storage at 37 C for 14 days in sterile glass
  Peak Area (Ach concentration by HPLC-UV): 56494
